Tests used:
human tumor cells MCF-7 = experiment: Cell proliferation assay (CellTiter Glo), MCF-7; assay type: cell-based; details: MCF7, MCF-7 cells incubated for 120 h, read-out: IC50(μM) of compound on MCF cell
Method: (§1) Method: The anti-proliferative effects on human tumor cells MCF-7 and HGC27 of certain compounds of the present invention were evaluated by CellTiter Glo assay.
(§2) Detection method: MCF-7 cells were suspended in DMEM culture medium, the cell concentration of which was adjusted to 25000 cells/mL; HGC27 cells were suspended in RPMI-1640 culture medium, the cell concentration of which was adjusted to 5000 cells/mL. 100 μL of cell suspension was dispensed to a 96-well assay plate and placed in a CO2 incubator overnight. The tested compounds were dissolved in DMSO, and 3-fold derail dilution was performed to obtain 10-point concentrations. the 10-point concentrations of the tested compounds or or negative control was transferred to the well containing 100 μL of culture medium respectively, incubated at 37° C., 5% CO2, the HGC27 cells were incubated for 96 h, MCF-7 cells were incubated for 120 h. Then 100 μL of CellTiter-Glo agent was added to the above-mentioned 96-well assay plate, incubated at room temperature for 10 minutes to allow stable luminescence signal. VICTOR™ X5 instrument was used to record RLU (relative luminescence unit), and then calculate the IC50 values were calculated.
(§3) Compound inhibition rate(% inh)=100% −(tested compound RLU-blank control RLU)/(negative control RLU-blank control RLU)*100%
(§4) Blank control: blank culture medium, with no compound or cell;
(§5) The IC50 (half inhibitory concentration) of the compound was obtained using the following nonlinear fitting formula:
(§6) Y=minimum inhibition rate+(max inhibition rate-minimum inhibition rate)/(1+10^((Log IC50−X)*slope)); wherein, X: the log value of the concentration of the tested compound; Y: the inhibition rate of the tested compound(% inh).

human tumor cells HGC27 = experiment: Cell proliferation assay (CellTiter Glo), HGC27; assay type: cell-based; details: HGC-27, HGC27 cells incubated for 96 h, read-out: IC50(μM) of ompound on HGC-27cell
Method: as §1, §2, §3, §4, §5, §6

PI3Kα = PI3Kα (Homo sapiens, UniProt P42336); experiment: Kinase experiment (ADP-Glo, luminescence), PI3Kα; assay type: biochemical; details: final concentration of ATP 10 μM; read-out: IC50 of compound to PI3K (nM) α
Sequence of PI3Kα (P42336 whole entry): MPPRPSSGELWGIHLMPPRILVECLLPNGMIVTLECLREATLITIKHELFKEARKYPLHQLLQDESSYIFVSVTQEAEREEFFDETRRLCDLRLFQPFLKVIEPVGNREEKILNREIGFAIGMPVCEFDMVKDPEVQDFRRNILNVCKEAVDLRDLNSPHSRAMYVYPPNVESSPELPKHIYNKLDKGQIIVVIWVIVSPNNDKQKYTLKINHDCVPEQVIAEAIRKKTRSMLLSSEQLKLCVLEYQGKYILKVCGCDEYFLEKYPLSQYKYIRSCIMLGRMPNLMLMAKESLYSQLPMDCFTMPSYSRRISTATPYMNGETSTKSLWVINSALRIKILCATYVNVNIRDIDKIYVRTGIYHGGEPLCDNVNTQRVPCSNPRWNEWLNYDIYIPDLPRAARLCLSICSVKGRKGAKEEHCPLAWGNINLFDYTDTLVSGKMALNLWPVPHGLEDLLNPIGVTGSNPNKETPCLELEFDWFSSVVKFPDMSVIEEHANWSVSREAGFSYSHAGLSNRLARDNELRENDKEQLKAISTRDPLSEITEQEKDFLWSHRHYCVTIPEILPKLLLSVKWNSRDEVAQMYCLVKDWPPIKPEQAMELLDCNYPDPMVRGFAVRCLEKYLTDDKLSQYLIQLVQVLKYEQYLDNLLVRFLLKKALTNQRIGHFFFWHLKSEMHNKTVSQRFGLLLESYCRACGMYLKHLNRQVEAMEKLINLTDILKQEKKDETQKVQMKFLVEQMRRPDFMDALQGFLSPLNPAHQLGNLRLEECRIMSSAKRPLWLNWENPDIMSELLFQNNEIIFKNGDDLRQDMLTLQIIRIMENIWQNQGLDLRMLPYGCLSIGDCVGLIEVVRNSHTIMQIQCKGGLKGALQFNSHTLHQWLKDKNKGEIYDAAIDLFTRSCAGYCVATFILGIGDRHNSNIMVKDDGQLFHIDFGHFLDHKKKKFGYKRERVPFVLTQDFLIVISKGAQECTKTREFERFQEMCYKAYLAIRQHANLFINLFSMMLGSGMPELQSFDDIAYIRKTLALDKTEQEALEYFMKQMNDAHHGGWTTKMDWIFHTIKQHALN
Sequence of PI3Kα (P27986 whole entry partner): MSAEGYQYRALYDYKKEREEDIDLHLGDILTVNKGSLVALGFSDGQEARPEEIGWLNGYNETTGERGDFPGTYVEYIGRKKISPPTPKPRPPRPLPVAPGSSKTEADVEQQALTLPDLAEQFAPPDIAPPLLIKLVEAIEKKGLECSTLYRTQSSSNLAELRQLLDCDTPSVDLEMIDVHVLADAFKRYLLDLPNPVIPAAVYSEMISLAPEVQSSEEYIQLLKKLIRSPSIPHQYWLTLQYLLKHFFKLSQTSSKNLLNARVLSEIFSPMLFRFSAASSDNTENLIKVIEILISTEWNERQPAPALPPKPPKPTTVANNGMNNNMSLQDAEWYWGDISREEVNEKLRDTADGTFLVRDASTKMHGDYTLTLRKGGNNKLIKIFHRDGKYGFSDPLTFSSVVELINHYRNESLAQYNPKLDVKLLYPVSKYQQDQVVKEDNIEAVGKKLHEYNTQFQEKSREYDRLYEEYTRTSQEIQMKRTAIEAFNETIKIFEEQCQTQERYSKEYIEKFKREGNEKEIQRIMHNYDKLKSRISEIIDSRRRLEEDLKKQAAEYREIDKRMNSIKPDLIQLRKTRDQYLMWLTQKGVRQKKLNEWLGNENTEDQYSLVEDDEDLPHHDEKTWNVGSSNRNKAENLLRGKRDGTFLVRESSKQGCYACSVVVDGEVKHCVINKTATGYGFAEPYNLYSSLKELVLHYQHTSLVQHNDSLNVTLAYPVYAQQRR
Method: (§7) PI3Kα, PI3Kβ, PI3Kγ kinases undergo enzymatic reactions with their substrates ATP and PIP2:3PS, the amount of the product detected by ADP-Glo agent and luminescence method were used to reflect the enzymatic activities of PI3Kα, PI3Kβ, PI3Kγ (the final concentration of ATP is 10 μM). The above methods were used to test the inhibitory activity of certain compound of the present invention on PI3Kα, PI3Kβ and PI3Kγ kinase.
(§8) Agent: Basic kinase buffer (pH 7.5); PI3Kα, PI3Kβ, PI3Kγ kinase solutions; PIP2:3PS and ATP solutions; ADP-Glo kit (containing 10 mM MgCl2).
(§9) Wherein, the buffer composition: 50 mM Hepes (pH 7.2-7.5), 3 mM MgCl2, 1 mM EGTA, 0.03% CHAPS, 100 mM NaCl, 2 mM DTT; • Compound preparation: The tested compound was diluted to a specific concentration with 100% DMSO. • Process: 1) PI3Kα, PI3Kβ, or PI3Kγ protein solution were dispensed to a 384-well assay plate (6008280, PerkinElmer), and centrifuged at 1000 rpm for 1 minute. • 2) Tested compound, negative control DMSO or positive control BYL719 was dispensed to the above-mentioned 384-well assay plate with the kinase, centrifuged at 1000 rpm for 1 min, and incubated at 25° C. for 15 mins. • 3) PIP2:3PS&ATP solution was added to the above-mentioned 384-well assay plate, centrifuged at 1000 rpm for 1 min, incubated at 25° C. for 60 mins. • 4) 5 μL of ADP-Glo agent (10 mM MgCl2 contained) was transferred to the 384-well assay plate, centrifuged at 1000 rpm for 1 min, incubated at 25° C. for 40 mins. • 5) 10 μL of Detection agent was transferred to the 384-well assay plate, centrifuged at 1000 rpm for 1 min, incubated at 25° C. for 40 mins. • 6) RLU (Relative luminescence unit) value was measured by Envision multifunctional plate reader. The RLU value was used to characterize the degree of reaction between the enzyme and the substrate, and calculate the IC50 value. • 7) Data analysis:
(§10) Compound inhibition rate(% inh)=(negative control RLU-tested compound RLU)/(negative control RLU-positive control RLU)*100%
as §5
(§11) Y=minimum inhibition rate+(max inhibition rate-minimum inhibition rate)/(1+10^((Log IC50−X)*slope)); wherein, X is the log value of the concentration of the tested compound, Y is the inhibition rate of tested compound(% inh).

PI3Kβ = PI3Kβ (Homo sapiens, UniProt P42338); experiment: Kinase experiment (ADP-Glo, luminescence), PI3Kβ; assay type: biochemical; details: final concentration of ATP 10 μM; read-out: IC50 of compound to PI3K (nM) β
Sequence of PI3Kβ (P42338 whole entry): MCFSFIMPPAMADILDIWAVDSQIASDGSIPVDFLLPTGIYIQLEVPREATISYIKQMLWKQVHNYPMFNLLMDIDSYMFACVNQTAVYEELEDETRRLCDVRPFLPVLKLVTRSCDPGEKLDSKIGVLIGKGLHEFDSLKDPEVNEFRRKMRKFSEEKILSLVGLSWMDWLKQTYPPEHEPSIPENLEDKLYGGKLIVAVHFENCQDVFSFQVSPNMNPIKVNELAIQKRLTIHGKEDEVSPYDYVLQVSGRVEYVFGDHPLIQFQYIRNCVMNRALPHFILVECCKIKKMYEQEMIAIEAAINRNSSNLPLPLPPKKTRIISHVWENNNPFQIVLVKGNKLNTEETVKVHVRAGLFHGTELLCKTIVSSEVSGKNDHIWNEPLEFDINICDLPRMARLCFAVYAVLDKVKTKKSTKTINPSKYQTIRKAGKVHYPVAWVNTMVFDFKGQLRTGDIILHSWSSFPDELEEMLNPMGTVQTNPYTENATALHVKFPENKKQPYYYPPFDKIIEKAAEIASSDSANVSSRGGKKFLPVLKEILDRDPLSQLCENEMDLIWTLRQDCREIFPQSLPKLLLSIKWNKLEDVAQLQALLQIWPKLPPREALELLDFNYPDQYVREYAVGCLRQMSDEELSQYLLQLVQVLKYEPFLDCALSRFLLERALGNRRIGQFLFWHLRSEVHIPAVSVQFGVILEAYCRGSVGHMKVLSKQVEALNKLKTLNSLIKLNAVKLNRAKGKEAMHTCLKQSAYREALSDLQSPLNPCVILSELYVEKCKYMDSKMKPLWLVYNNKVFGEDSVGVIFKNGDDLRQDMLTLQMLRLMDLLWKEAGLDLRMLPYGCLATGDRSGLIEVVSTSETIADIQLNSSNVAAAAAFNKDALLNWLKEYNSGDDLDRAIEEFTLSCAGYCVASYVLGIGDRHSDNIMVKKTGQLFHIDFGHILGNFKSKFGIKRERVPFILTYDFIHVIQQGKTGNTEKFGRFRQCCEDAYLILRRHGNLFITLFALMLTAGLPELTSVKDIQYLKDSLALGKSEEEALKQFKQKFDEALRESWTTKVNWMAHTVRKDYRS
Sequence of PI3Kβ (P27986 whole entry partner): as the sequence (P27986 whole entry partner) above
Method: as §7, §8, §9, §10, §5, §11

PI3Kγ = PI3Kγ (Homo sapiens, UniProt P48736); experiment: Kinase experiment (ADP-Glo, luminescence), PI3Kγ; assay type: biochemical; details: final concentration of ATP 10 μM; read-out: IC50 of compound to PI3K (nM) γ
Sequence of PI3Kγ (P48736 whole entry): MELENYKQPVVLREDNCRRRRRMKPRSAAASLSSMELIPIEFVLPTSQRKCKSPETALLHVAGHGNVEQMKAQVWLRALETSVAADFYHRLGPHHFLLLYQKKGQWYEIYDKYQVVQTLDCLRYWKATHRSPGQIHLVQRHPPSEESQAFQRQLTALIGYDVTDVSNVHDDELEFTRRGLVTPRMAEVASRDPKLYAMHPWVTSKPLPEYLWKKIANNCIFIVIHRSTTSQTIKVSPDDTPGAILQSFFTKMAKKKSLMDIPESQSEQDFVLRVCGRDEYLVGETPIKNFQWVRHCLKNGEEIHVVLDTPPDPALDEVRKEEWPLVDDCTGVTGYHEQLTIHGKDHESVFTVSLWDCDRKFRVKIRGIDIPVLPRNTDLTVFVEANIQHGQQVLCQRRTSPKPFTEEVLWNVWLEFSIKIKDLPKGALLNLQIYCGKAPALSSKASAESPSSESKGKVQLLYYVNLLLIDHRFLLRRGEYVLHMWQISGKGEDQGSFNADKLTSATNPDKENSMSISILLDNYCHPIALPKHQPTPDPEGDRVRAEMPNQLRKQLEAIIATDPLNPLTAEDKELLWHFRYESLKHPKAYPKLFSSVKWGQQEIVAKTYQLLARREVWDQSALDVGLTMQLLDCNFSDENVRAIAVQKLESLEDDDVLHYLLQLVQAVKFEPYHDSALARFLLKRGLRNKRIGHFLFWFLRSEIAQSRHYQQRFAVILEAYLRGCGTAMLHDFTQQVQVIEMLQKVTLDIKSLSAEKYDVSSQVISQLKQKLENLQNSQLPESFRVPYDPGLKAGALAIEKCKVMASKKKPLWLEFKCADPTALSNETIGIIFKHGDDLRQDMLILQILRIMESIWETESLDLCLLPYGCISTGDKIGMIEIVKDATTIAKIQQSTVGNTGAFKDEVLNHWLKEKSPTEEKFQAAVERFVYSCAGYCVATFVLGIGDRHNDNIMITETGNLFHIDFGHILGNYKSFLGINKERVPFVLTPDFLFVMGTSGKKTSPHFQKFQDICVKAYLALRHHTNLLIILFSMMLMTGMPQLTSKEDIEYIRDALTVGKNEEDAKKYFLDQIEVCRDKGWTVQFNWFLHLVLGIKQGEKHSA
Method: as §7, §8, §9, §10, §5, §11

[1] = Pharmacokinetic test in male SD rats; assay type: in vivo; details: rat, plasma; for clearance: intravenous injection, 2 mg/kg; for AUC / Cmax: po, gavage, 10 mg/kg
Method: Method: 42 male SD rats, weight: 150-300 g. Divided into 7 groups randomly, with 6 rats in each group. Among the 6 rats in each group, three of them were administrated a single intravenous injection of […] of the example compound, the other three were given intragastric administration of […] of the example compound, blood was collected from the orbital venous plexus at designated time points, plasma was separated, and stored in a −80° C. refrigerator for later use.
The protein of the resultant plasma was precipitated by acetonitrile, the supernatant was extracted, and mixed with water at the ratio of 1:1, took 10 μL of which for LC-MS/MS detection, and calculated the average was calculated.

Row | SMILES | IC50 (human tumor cells MCF-7) | IC50 (human tumor cells HGC27) | IC50 (PI3Kα) | IC50 (PI3Kβ) | IC50 (PI3Kγ) | clearance [1] | AUC [1] | Cmax [1]
1 | CC(C)(c1cc(-c2cn3c(n2)-c2ccc(N4CCC[C@H]4C(N)=O)cc2OCC3)ccn1)C(F)(F)F [Control compound 3, (2S)-1-(2-(2-(1,1,1-trifluoro-2-methylpropan-2-yl)pyridn-4-yl)-5,6-dihydrobenzo[f]imidazo[1,2-d][1,4]oxazepin-9-yl)pyrrolidine-2-carboxamide, reference compound] | 0.519 µM | 2.07 µM | – | – | – | – | – | –
2 | NC(=O)[C@@H]1CCCN1c1ccc2c(c1)OCCn1cc(N3C(=O)CC[C@@H]3CO)nc1-2 [Control compound 2, (2S)-1-(2-((2R)-2-(hydroxymethyl)-5-oxopyrrolidine-1-yl)-5,6-dihydrobenzo[f]imidazo[1,2-d][1,4]oxazepin-9-yl)pyrrolidine-2-carboxamide, reference compound] | 0.549 µM | – | – | – | – | – | – | –
3 | CCN1C(=O)C(C(C)C)N(c2cn3c(n2)-c2ccc(N4CCC[C@H]4C(N)=O)cc2OCC3)C1=O (stereo partly drawn) [Example 7, (2S)-1-(2-(3-ethyl-5-isopropyl-2,4-dioxoimidazolidin-1-yl)-5,6-dihydrobenzo[f]imidazo [1,2-d] [1,4]oxazepin-9-yl) pyrrolidine-2-carboxamide] | – | – | 5 to 20 nM | – | – | – | – | –
4 | CC(C)C1C(=O)N(C2CCC2)C(=O)N1c1cn2c(n1)-c1ccc(N3CCC[C@H]3C(N)=O)cc1OCC2 (stereo partly drawn) [Example 6, (2S)-1-(2-(3-cyclobutyl-5-isopropyl-2,4-dioxoimidazolidin-1-yl)-5,6-dihydrobenzo[f]imidazo [1,2-d] [1,4]oxazepin-9-yl)pyrrolidine-2-carboxamide] | – | – | 5 to 20 nM | – | – | – | – | –
5 | CC(C)[C@H]1C(=O)N(C2CC2)C(=O)N1c1cn2c(n1)-c1ccc(N3CCC[C@H]3C(N)=O)cc1OCC2 [Example 33, (2S)-1-(2-((5S)-3-cyclopropyl-5-isopropyl-2,4-dioxoimidazolidin-1-yl)-5,6-dihydrobenzo[f]imidazo[1,2-d] [1,4]oxazepin-9-yl)pyrrolidine-2-carboxamide] | 0.047 µM | 0.267 µM | < 5 nM | > 600 nM | > 600 nM | 11.1 mL/min/kg | 19800 ng·h/mL | 1600 ng/mL
6 | CC(C)C1C(=O)N(CC(F)(F)F)C(=O)N1c1cn2c(n1)-c1ccc(N3CCC[C@H]3C(N)=O)cc1OCC2 (stereo partly drawn) [Example 3, (2S)-1-(2-(5-isopropyl-2,4-dioxo-3-(2,2,2-trifluoroethyl)imidazolidine-1-yl)-5,6-dihydrobenzo[f]imdazo[1,2-d] [1,4]oxazepin-9-yl)pyrrolidine-2-carboxamide] | – | – | < 5 nM | – | – | – | – | –
7 | CC(C)C1C(=O)N(c2ccccc2)C(=O)N1c1cn2c(n1)-c1ccc(N3CCC[C@H]3C(N)=O)cc1OCC2 (stereo partly drawn) [Example 9, (2S)-1-(2-(5-isopropyl-2,4-dioxo-3-phenylimidazolidine-1-yl)-5,6-dihydrobenzo[f]imidazo[1,2-d] [1,4]oxazepin-9-yl)pyrrolidine-2-carboxamide] | 0.142 µM | – | 5 to 20 nM | – | – | – | – | –
8 | CC(C)[C@@H]1C(=O)N(C2CC2)C(=O)N1c1cn2c(n1)-c1ccc(N3CCC[C@H]3C(N)=O)cc1OCC2 [Example 32, (2S)-1-(2-((5R)-3-cyclopropyl-5-isopropyl-2,4-dioxoimidazolidin-1-yl)-5,6-dihydrobenzo[f]imidazo[1,2-d] [1,4]oxazepin-9-yl)pyrrolidine-2-carboxamide] | 0.107 µM | 0.415 µM | < 5 nM | 300 to 600 nM | 300 to 600 nM | 1.5 mL/min/kg | 66400 ng·h/mL | 5030 ng/mL
9 | CN1C(=O)CN(c2cn3c(n2)-c2ccc(N4CCC[C@H]4C(N)=O)cc2OCC3)C1=O [Example 28, (2S)-1-(2-(3-methyl-2,4-dioxoimidazolidin-1-yl)-5,6-dihydrobenzo[f]imidazo[1,2-d] [1,4]oxazepin-9-yl)pyrrolidine-2-carboxamide] | 0.468 µM | 3.92 µM | – | – | – | – | – | –
10 | CC(C)C1C(=O)N(c2ccc(F)cc2)C(=O)N1c1cn2c(n1)-c1ccc(N3CCC[C@H]3C(N)=O)cc1OCC2 (stereo partly drawn) [Example 4, (2S)-1-(2-(3-(4-fluorophenyl)-5-isopropyl-2,4-dioxoimidazolidin-1-yl)-5,6-dihydrobenzo[f]imidazo [1,2-d][1,4]oxazepin-9-yl)pyrrolidine-2-carboxamide] | – | – | 5 to 20 nM | > 600 nM | > 600 nM | 4.75 mL/min/kg | 29100 ng·h/mL | 2690 ng/mL
11 | C[C@@H]1COC(=O)N1c1cn2c(n1)-c1ccc(N3CCC[C@H]3C(N)=O)cc1OCC2 [Control compound 1, (2S)-1-(2-((4R)-4-methyl-2-oxooxazolidin-3-yl)-5,6-dihydrobenzo[f]imidazo[1,2-d] [1,4]oxazepin-9-yl)pyrrolidine-2-carboxamide, reference compound] | 0.444 µM | 1.58 µM | – | – | – | 16.6 mL/min/kg | 7880 ng·h/mL | 1960 ng/mL
12 | CC(C)C1C(=O)N(C)C(=O)N1c1cn2c(n1)-c1ccc(N3CCC[C@H]3C(N)=O)cc1OCC2 (stereo partly drawn) [Example 1, (2S)-1-(2-(5-isopropyl-3-methyl-2,4-dioxoimidazolidin-1-yl)-5,6-dihydrobenzo[f]imidazo [1,2-d][1,4]oxazepin-9-yl)pyrrolidine-2-carboxamide] | 0.176 µM | – | < 5 nM | > 600 nM | > 600 nM | – | – | –
13 | CN1C(=O)C(C2CC2)N(c2cn3c(n2)-c2ccc(N4CCC[C@H]4C(N)=O)cc2OCC3)C1=O (stereo partly drawn) [Example 5, (2S)-1-(2-(5-cyclopropyl-3-methyl-2,4-dioxoimidazolidin-1-yl)-5,6-dihydrobenzo[f]imidazo [1,2-d] [1,4]oxazepin-9-yl) pyrrolidine-2-carboxamide] | 0.373 µM | 4.07 µM | 5 to 20 nM | – | – | – | – | –
14 | CC(C)C1C(=O)N(C(C)C)C(=O)N1c1cn2c(n1)-c1ccc(N3CCC[C@H]3C(N)=O)cc1OCC2 (stereo partly drawn) [Example 23, (2S)-1-(2-(3,5-diisopropyl-2,4-dioxoimidazolidin-1-yl)-5,6-dihydrobenzo[f]imidazo[1,2-d] [1,4]oxazepin-9-yl)pyrrolidine-2-carboxamide] | 0.074 µM | – | < 5 nM | – | – | 8.76 mL/min/kg | 18600 ng·h/mL | 1830 ng/mL
